Data from patent US8471027B2, “Adamantyl compounds” (Hoffmann-La Roche Inc., priority 2011, dated 2013).

How the values were obtained:
[1] = system: phospho(Ser63)-c-jun in HK-2 cells; experiment: Cell-based assay for JNK inhibitors: in-cell ELISA of TNFα-stimulated phospho(Ser63)-c-jun in HK-2 cells; conditions: Homo sapiens, 10 ng/mL TNFα, 60 min preincubation with compound
Procedure: Cell-Based Assay for JNK Inhibitors
The cell-based assay employed the in-cell ELISA method to determine the ability of compounds to prevent the generation of phospho(Ser63)-c-jun in HK-2 cells (human proximal tubule cells) in response to stimulation with tumor necrosis factor α (TNFα). In brief, for quantification of phospho(Ser63)-c-jun, the cells (in 96-well format) were fixed and permeablized then incubated sequentially with a rabbit anti-phospho-c-jun First Antibody specific for the presence of the phospho-Ser63 epitope and a donkey anti-rabbit IgG Second Antibody linked to horseradish peroxidase (HRP) for colorimetric quantitation of binding. For determination of non-specific binding of the First Antibody, Blank wells were preincubated with a mouse anti-phospho(Ser63)-c-jun Blocking Antibody that prevented specific binding of the First Antibody to the phospho-Ser63 epitope, but which was not recognized by the donkey anti-rabbit IgG Second Antibody. […] Blank wells received no TNFα stimulation or compound. Additional Control wells received TNFα stimulation, but no compound. The signal obtained in this case was considered the value for 0% inhibition (Control value).
Stock cultures of HK-2 cells (ATCC, Manassas, Va.) were grown under a 5% CO2/[…] atmosphere at 37 degrees C. in Keratinocyte-SFM medium (KSFM, Invitrogen, Grand Island, N.Y.) containing 5 μg/L epidermal growth factor and 5 mg/L bovine pituitary extract (both supplied with the medium), additionally supplemented with 10% (v/v) fetal calf serum (FCS; Invitrogen, Grand Island, N.Y.) and 1% (v/v) antibiotic-antimycotic (ABAM: Sigma, St. Louis, Mo.). For assays, cells were seeded in collagen coated 96-well polystyrene plates (BD Biosciences, Franklin Lakes, N.J.) at a density of 40,000 cells/well and cultured for 24 h in the same medium (100 μL/well) followed by a further 16-24 h in 100 μL of similar medium, but without FCS. […] Cells were incubated for a further 30 minutes and then the medium was aspirated and the wells washed with 100 μL/well PBS followed by the addition of 100 μL 3.7% (v/v) Formaldehyde (Fisher Scientific, Fair Lawn, N.J.) in PBS. Plates were then allowed to stand at room temperature for 20 minutes before being washed with 200 μL/well of PBS. (Further steps were performed immediately or the plates were stored at 4 degrees C. and the assay completed the next day.) To each well was added 100 μL 1% (v/v) TritonX-100 (Sigma, St. Louis, Mo.) in PBS followed by 20 minutes standing at room temperature, washing with 200 μL/well PBS, the addition of 100 μL/well of Quenching buffer (1% (v/v) hydrogen peroxide (Sigma, St. Louis, Mo.) and 0.1% (w/v) sodium azide (Fisher Scientific, Fair Lawn, N.J.)) in PBS and a further 20 minutes at room temperature. Plates were then washed twice with 200 μL/well of 0.1% (v/v) Tween-20 (Teknova, Hollister, Calif.) in PBS before addition of 200 μL/well of 2% BSA/0.10% Tween-20 in PBS and a further 1 hour at room temperature. At this time, buffer was removed from Blank wells and replaced with 90 μL/well of mouse anti-phospho-c-jun-Ser63 (BD Bioscience, 558036) diluted 1:4000 in PBS containing 1% BSA/0.1% Tween-20 (Antibody Dilution Buffer). All other wells are replaced with 90 μL/well of rabbit anti-phospho-c-jun-Ser63 (Cell Signaling, 9261) diluted 1:250 in Antibody Dilution Buffer. After a further one hour, rabbit anti-phospho-c-jun-Ser63 is added directly to the solution in the Blank wells resulting in 1:250 dilution of this antibody. Plates were then placed on a slowly rotating platform at 4 degrees C. overnight. Wells were then washed thrice with 200 μL/well PBS/0.1% Tween-20. After addition of the third wash, the plates were placed on a slowly rotating platform for 15 minutes at room temperature. […]

[2] = target: JNK1 (Homo sapiens, UniProt P45983); experiment: In vitro JNK1 Assay (TR-FRET, phosphorylation of GST-c-Jun); assay type: biochemical; conditions: 0.2 nM JNK1, 26.7 nM GST-c-Jun, 2 μM ATP
JNK1, sequence (P45983 whole entry, species assumed, the tested form may be a part): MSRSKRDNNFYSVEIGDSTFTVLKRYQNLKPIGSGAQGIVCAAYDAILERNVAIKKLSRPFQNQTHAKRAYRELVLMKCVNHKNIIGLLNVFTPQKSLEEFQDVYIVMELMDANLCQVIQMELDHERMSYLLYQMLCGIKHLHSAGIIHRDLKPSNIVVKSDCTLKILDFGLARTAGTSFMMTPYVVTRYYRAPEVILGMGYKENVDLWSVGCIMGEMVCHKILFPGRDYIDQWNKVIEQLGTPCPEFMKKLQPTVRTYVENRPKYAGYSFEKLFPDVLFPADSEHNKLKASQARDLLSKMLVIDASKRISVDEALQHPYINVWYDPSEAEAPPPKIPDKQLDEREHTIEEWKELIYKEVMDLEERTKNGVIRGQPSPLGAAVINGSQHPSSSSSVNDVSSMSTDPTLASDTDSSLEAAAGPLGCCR
Procedure: Phosphorylation of GST-c-Jun protein (amino acid residues 1-79) was measured as JNK1 activity. […] The reaction buffer contained 50 mM HEPES, pH 7.0, 10 mM MgCl2, 1 mM DTT, 0.1 mM Na3 VO4 and 0.2 mg/mL BSA. After 30 min. incubation at room temperature, the reaction was terminated by adding buffer containing 8 mM EDTA and a polyclonal anti-phospho-c-Jun antibody (Cell Signaling #9261L), followed by an additional incubation of 30 min. at room temperature. […] Time-resolved Fluorescence Resonance Energy Transfer (TR-FRET) signals were measured 1 hr. later on the EnVision reader (Perkin Elmer). Compound potency was assessed at 10 serially diluted concentrations. Percentage of inhibition at each concentration was determined to generate an IC50 value for each compound.

COC(=O)c1c(Cc2ccc(C(=O)N[C@H]3[C@@H]4C[C@@H]5C[C@H]3C[C@@](O)(C5)C4)cc2)c(=O)c2cccnc2n1-c1ccccc1 [Compound I-2, rel-3-[4-((1S,2R,3R,5S,7S)-5-Hydroxy-adamantan-2-ylcarbamoyl)-benzyl]-4-oxo-1-phenyl-1,4-dihydro-[1,8]naphthyridine-2-carboxylic acid methyl ester]
EC50 [1]: 8500 nM
IC50 [2]: 47 nM

COC(=O)c1c(Cc2ccc(C(=O)N[C@@H]3[C@@H]4C[C@@H]5C[C@H]3C[C@@](O)(C5)C4)cc2)c(=O)c2ccc(Cl)cc2n1-c1ccccc1 [Compound I-3, rel-7-Chloro-3-[4-((1S,2S,3R,5S,7S)-5-hydroxy-adamantan-2-ylcarbamoyl)-benzyl]-4-oxo-1-phenyl-1,4-dihydro-quinoline-2-carboxylic acid methyl ester]
EC50 [1]: 5800 nM
IC50 [2]: 12 nM

COC(=O)c1c(Cc2ccc(C(=O)N[C@H]3[C@@H]4C[C@@H]5C[C@H]3C[C@@](O)(C5)C4)cc2)c(=O)c2ccc(Cl)cc2n1-c1ccccc1 [Compound I-4, rel-7-Chloro-3-[4-((1S,2R,3R,5S,7S)-5-hydroxy-adamantan-2-ylcarbamoyl)-benzyl]-4-oxo-1-phenyl-1,4-dihydro-quinoline-2-carboxylic acid methyl ester]
EC50 [1]: 6300 nM
IC50 [2]: 51 nM

O=C(N[C@@H]1[C@@H]2C[C@@H]3C[C@H]1C[C@@](O)(C3)C2)c1ccc(Cc2cn(-c3ccccn3)c3cc(Cl)ccc3c2=O)cc1 [Compound I-5, rel-4-(7-Chloro-4-oxo-1-pyridin-2-yl-1,4-dihydro-quinolin-3-ylmethyl)-N-((1S,2S,3R,5S,7S)-5-hydroxy-adamantan-2-yl)-benzamide]
IC50 [2]: 330 nM

COC(=O)c1c(Cc2ccc(C(=O)N[C@@H]3[C@@H]4C[C@@H]5C[C@H]3C[C@@](OC(C)=O)(C5)C4)cc2)c(=O)c2ccc(Cl)cc2n1-c1ccccc1 [Compound I-6, rel-3-[4-((1S,2S,3R,5S,7S)-5-Acetoxy-adamantan-2-ylcarbamoyl)-benzyl]-7-chloro-4-oxo-1-phenyl-1,4-dihydro-quinoline-2-carboxylic acid methyl ester]
EC50 [1]: 4400 nM
IC50 [2]: 110 nM

COC(=O)c1c(Cc2ccc(C(=O)N[C@H]3[C@@H]4C[C@@H]5C[C@H]3C[C@@](N)(C5)C4)cc2)c(=O)c2cccnc2n1-c1ccccc1 [Compound I-8, rel-3-[4-((1S,2R,3R,5S,7S)-5-amino-adamantan-2-ylcarbamoyl)-benzyl]-4-oxo-1-phenyl-1,4-dihydro-[1,8]naphthyridine-2-carboxylic acid methyl ester]
EC50 [1]: 44000 nM

COC(=O)c1c(Cc2ccc(C(=O)N[C@@H]3[C@@H]4C[C@@H]5C[C@H]3C[C@@](N)(C5)C4)cc2)c(=O)c2ccc(Cl)cc2n1-c1ccccc1 [Compound I-9, rel-3-[4-((1S,2S,3R,5S,7S)-5-Amino-adamantan-2-ylcarbamoyl)-benzyl]-7-chloro-4-oxo-1-phenyl-1,4-dihydro-quinoline-2-carboxylic acid methyl ester]
EC50 [1]: 3200 nM
IC50 [2]: 27 nM

COC(=O)c1c(Cc2ccc(C(=O)N[C@@H]3[C@@H]4C[C@@H]5C[C@H]3C[C@@](NC(C)=O)(C5)C4)cc2)c(=O)c2ccc(Cl)cc2n1-c1ccccc1 [Compound I-10, rel-3-[4-((1S,2S,3R,5S,7S)-5-Acetylamino-adamantan-2-ylcarbamoyl)-benzyl]-7-chloro-4-oxo-1-phenyl-1,4-dihydro-quinoline-2-carboxylic acid methyl ester]
EC50 [1]: 3500 nM
IC50 [2]: 30 nM

COC(=O)c1c(Cc2ccc(C(=O)N[C@@H]3[C@@H]4C[C@@H]5C[C@H]3C[C@@](NC(=O)C(C)(C)C)(C5)C4)cc2)c(=O)c2ccc(Cl)cc2n1-c1ccccc1 [Compound I-11, rel-7-Chloro-3-{4-[(1S,2S,3R,5S,7S)-5-(2,2-dimethyl-propionylamino)-adamantan-2-ylcarbamoyl]-benzyl}-4-oxo-1-phenyl-1,4-dihydro-quinoline-2-carboxylic acid methyl ester]
EC50 [1]: 6900 nM
IC50 [2]: 62 nM

COC(=O)c1c(Cc2ccc(C(=O)N[C@@H]3[C@@H]4C[C@@H]5C[C@H]3C[C@@](NC(=O)C(C)(C)OC(C)=O)(C5)C4)cc2)c(=O)c2ccc(Cl)cc2n1-c1ccccc1 [Compound I-12, rel-3-{4-[(1S,2S,3R,5S,7S)-5-(2-Acetoxy-2-methyl-propionylamino)-adamantan-2-ylcarbamoyl]-benzyl}-7-chloro-4-oxo-1-phenyl-1,4-dihydro-quinoline-2-carboxylic acid methyl ester]
EC50 [1]: 3300 nM
IC50 [2]: 17 nM

COC(=O)c1c(Cc2ccc(C(=O)N[C@@H]3[C@@H]4C[C@@H]5C[C@H]3C[C@@](NC(=O)C(C)(C)O)(C5)C4)cc2)c(=O)c2ccc(Cl)cc2n1-c1ccccc1 [Compound I-13, rel-7-Chloro-3-{4-[(1S,2S,3R,5S,7S)-5-(2-hydroxy-2-methyl-propionylamino)-adamantan-2-ylcarbamoyl]-benzyl}-4-oxo-1-phenyl-1,4-dihydro-quinoline-2-carboxylic acid methyl ester]
EC50 [1]: 1900 nM
IC50 [2]: 42 nM

COC(=O)c1c(Cc2ccc(C(=O)N[C@@H]3[C@@H]4C[C@@H]5C[C@H]3C[C@@](NS(=O)(=O)C3CC3)(C5)C4)cc2)c(=O)c2ccc(Cl)cc2n1-c1ccccc1 [Compound I-14, rel-7-Chloro-3-[4-((1S,2S,3R,5S,7S)-5-cyclopropanesulfonylamino-adamantan-2-ylcarbamoyl)-benzyl]-4-oxo-1-phenyl-1,4-dihydro-quinoline-2-carboxylic acid methyl ester]
EC50 [1]: 3100 nM
IC50 [2]: 26 nM

COC(=O)c1c(Cc2ccc(C(=O)N[C@@H]3[C@@H]4C[C@@H]5C[C@H]3C[C@@](NS(C)(=O)=O)(C5)C4)cc2)c(=O)c2ccc(Cl)cc2n1-c1ccccc1 [Compound I-15, rel-7-Chloro-3-[4-((1S,2S,3R,5S,7S)-5-methanesulfonylamino-adamantan-2-ylcarbamoyl)-benzyl]-4-oxo-1-phenyl-1,4-dihydro-quinoline-2-carboxylic acid methyl ester]
EC50 [1]: 3200 nM
IC50 [2]: 57 nM

COC(=O)c1c(Cc2ccc(C(=O)N[C@@H]3[C@@H]4C[C@@H]5C[C@H]3C[C@@](NCC(C)(C)O)(C5)C4)cc2)c(=O)c2ccc(Cl)cc2n1-c1ccccc1 [Compound I-16, rel-7-Chloro-3-{4-[(1S,2S,3R,5S,7S)-5-(2-hydroxy-2-methyl-propylamino)-adamantan-2-ylcarbamoyl]-benzyl}-4-oxo-1-phenyl-1,4-dihydro-quinoline-2-carboxylic acid methyl ester]
EC50 [1]: 1900 nM
IC50 [2]: 10 nM
